Drawing on PubChem BioAssay AID256 (DTP/NCI, 2004), this text covers T/C for 25 compounds.

The structures appear in SMILES notation. Inconclusive results and toxic doses are left out.

In this assay the test system is CD2F1 mice, L1210 leukemia ip, survival T/C. Briefly: NCI In Vivo Anticancer Drug Screen. Data for tumor model L1210 Leukemia (intraperitoneal) in CD2F1 (CDF1) mice. The following applies: endpoint: mean survival time, higher = longer survival. The gist of the method:
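Transplantable tumor in mice; compound-treated vs vehicle-treated groups. Read-out = treated/control ratio of the measured endpoint.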

Setting [1] is: dose: 100.0 mg/kg/injection, schedule: Q01DX009 (ip), vehicle: saline with Tween-80.
The mark [2] stands for this setting: dose: 200.0 mg/kg/injection, schedule: Q01DX009 (ip), vehicle: saline with Tween-80.
The mark [3] stands for this setting: dose: 400.0 mg/kg/injection, schedule: Q01DX009 (ip), vehicle: saline with Tween-80.
[4] abbreviates: dose: 25.0 mg/kg/injection, schedule: Q04DX003 (ip), vehicle: saline.
Setting [5] is: dose: 50.0 mg/kg/injection, schedule: Q04DX003 (ip), vehicle: saline.
The mark [6] stands for this setting: dose: 100.0 mg/kg/injection, schedule: Q01DX001 (ip), vehicle: saline.
[7] abbreviates: dose: 100.0 mg/kg/injection, schedule: Q04DX003 (ip), vehicle: saline.
Where [8] appears, read: dose: 200.0 mg/kg/injection, schedule: Q01DX001 (ip), vehicle: saline.
Where [9] appears, read: dose: 400.0 mg/kg/injection, schedule: Q01DX001 (ip), vehicle: saline.
Where [10] appears, read: dose: 25.0 mg/kg/injection, schedule: Q01DX009 (ip), vehicle: saline with Tween-80.
[11] abbreviates: dose: 50.0 mg/kg/injection, schedule: Q01DX009 (ip), vehicle: saline with Tween-80.
Where [12] appears, read: dose: 100.0 mg/kg/injection, schedule: Q01DX001 (ip), vehicle: saline with Tween-80.
Where [13] appears, read: dose: 200.0 mg/kg/injection, schedule: Q01DX001 (ip), vehicle: saline with Tween-80.
Setting [14] is: dose: 400.0 mg/kg/injection, schedule: Q01DX001 (ip), vehicle: saline with Tween-80.
Where [15] appears, read: dose: 75.0 mg/kg/injection, schedule: Q01DX001 (ip), vehicle: saline.
[16] abbreviates: dose: 150.0 mg/kg/injection, schedule: Q01DX001 (ip), vehicle: saline.
[17] abbreviates: dose: 100.0 mg/kg/injection, schedule: Q04DX003 (ip), vehicle: saline with Tween-80.
The mark [18] stands for this setting: dose: 200.0 mg/kg/injection, schedule: Q04DX003 (ip), vehicle: saline with Tween-80.
[19] abbreviates: dose: 400.0 mg/kg/injection, schedule: Q04DX003 (ip), vehicle: saline with Tween-80.

As for `Cc1ccc([N+](=O)[O-])cc1NC(=O)NNC(=O)CNC(=O)c1ccc(Cl)cc1`, the T/C is, setting by setting: under setting [1], 88 % of control; under setting [2], 94 % of control; under setting [3], 107 % of control.

Turning to `NC(=O)CCC(=O)NCCN1CC1`, the T/C under setting [4] is 97 % of control; the T/C under setting [5] is 97 % of control; the T/C under setting [6] is 104 % of control; the T/C under setting [7] was 96 % of control; the T/C under setting [8] was 98 % of control; the T/C under setting [9] is 115 % of control.

For the compound `ClC1CC[N-]CC1.ClC1CC[N-]CC1.O=C(O)CC(=O)O.[Pt+2]`, the T/C is, setting by setting: (dose: 12.5 mg/kg/injection, schedule: Q01DX009 (ip), vehicle: saline with Tween-80) 96 % of control; under setting [10], 94 % of control; under setting [11], 102 % of control; under setting [1], 104 % of control; under setting [2], 96 % of control.

For the compound `c1ccc2c(c1)Cc1c-2nc2ccccc2c1N1CCOCC1`, the T/C is 94 % of control under setting [12]; 97 % of control under setting [1]; 100 % of control under setting [13]; 106 % of control under setting [2]; 92 % of control under setting [14].

As for `c1ccc2c(c1)CCc1ccccc1N2`, the T/C under setting [12] is 100 % of control, the T/C under setting [13] was 100 % of control and the T/C under setting [14] is 91 % of control.

Take `NC(=O)c1cc([N+](=O)[O-])ccc1NN=NCCCl`: the T/C by setting is: (dose: 25.0 mg/kg/injection, schedule: Q01DX001 (ip), vehicle: Klucel (hydroxypropylcellulose) (HPC)) 112 % of control; (dose: 50.0 mg/kg/injection, schedule: Q01DX001 (ip), vehicle: Klucel (hydroxypropylcellulose) (HPC)) 150 % of control; (dose: 100.0 mg/kg/injection, schedule: Q01DX001 (ip), vehicle: Klucel (hydroxypropylcellulose) (HPC)) 183 % of control; (dose: 200.0 mg/kg/injection, schedule: Q01DX001 (ip), vehicle: Klucel (hydroxypropylcellulose) (HPC)) 231 % of control.

Turning to `COc1ccc(C2C3CCC(C3)C2N)cc1` (stereo not given), the T/C runs as follows: (dose: 5.0 mg/kg/injection, schedule: Q01DX009 (ip), vehicle: saline) 96 % of control; (dose: 10.0 mg/kg/injection, schedule: Q01DX009 (ip), vehicle: saline) 96 % of control; (dose: 20.0 mg/kg/injection, schedule: Q01DX009 (ip), vehicle: saline) 92 % of control; under setting [4], 101 % of control; under setting [5], 96 % of control; under setting [7], 90 % of control.

Regarding `CCC1C(=O)OCc2c1cc1n(c2=O)Cc2cc3ccccc3nc2-1` (stereo not given), the T/C is 101 % of control (dose: 7.39 mg/kg/injection, schedule: Q01DX001 (ip), vehicle: saline); 101 % of control (dose: 11.1 mg/kg/injection, schedule: Q01DX001 (ip), vehicle: saline); 100 % of control (dose: 16.6 mg/kg/injection, schedule: Q01DX001 (ip), vehicle: saline); 111 % of control (dose: 25.0 mg/kg/injection, schedule: Q01DX001 (ip), vehicle: saline).

With `Cc1cc(C(=O)O)c(C)c([N+](=O)[O-])c1`, the T/C was 96 % of control under setting [12], 96 % of control under setting [13] and 100 % of control under setting [14].

Turning to `CCO/C=C1\SC(=S)N(Cc2ccccc2)C1=O`, the T/C (dose: 25.0 mg/kg/injection, schedule: Q01DX009 (ip), vehicle: other) was 105 % of control; the T/C (dose: 50.0 mg/kg/injection, schedule: Q01DX009 (ip), vehicle: other) is 115 % of control; the T/C under setting [1] is 89 % of control.

As to `CCCCCCCCCCCCCCCC(=O)N(CCCCN(CCCN(C)C)C(=O)CCCCCCCCCCCCCCC)CCCN(C)C`, the T/C reads like this: under setting [10], 93 % of control; under setting [11], 91 % of control.

As to `CNc1nc2cc(C)c(C)cc2n1C1OC(CO)C(O)C1O` (stereo not given), the T/C by setting is: under setting [15], 111 % of control; under setting [16], 103 % of control; (dose: 300.0 mg/kg/injection, schedule: Q01DX001 (ip), vehicle: saline) 108 % of control.

As for `O=C1NC(=O)c2cccc3cccc1c23`, the T/C runs as follows: under setting [1], 100 % of control; under setting [17], 98 % of control; under setting [2], 96 % of control; under setting [18], 102 % of control; under setting [3], 94 % of control; under setting [19], 100 % of control.

For `COP(=O)(OC)C(=O)c1cccc2ccccc12`, the T/C is, setting by setting: under setting [17], 95 % of control; under setting [18], 93 % of control; under setting [19], 96 % of control.

Consider `Nc1cc(Cl)c(I)cc1Cl`, for which the T/C under setting [6] was 102 % of control, the T/C under setting [8] is 102 % of control and the T/C under setting [9] is 101 % of control.

In the case of `C=C1C(=O)OC2CC1C(OC(=O)/C=C/c1ccccc1)C/C(C)=C/CC/C(C)=C/CCC2(C)O` (stereo not given), the T/C is, setting by setting: (dose: 12.5 mg/kg/injection, schedule: Q01DX009 (ip), vehicle: Klucel (hydroxypropylcellulose) (HPC)) 96 % of control; (dose: 25.0 mg/kg/injection, schedule: Q01DX009 (ip), vehicle: Klucel (hydroxypropylcellulose) (HPC)) 98 % of control; (dose: 50.0 mg/kg/injection, schedule: Q01DX009 (ip), vehicle: Klucel (hydroxypropylcellulose) (HPC)) 98 % of control; (dose: 100.0 mg/kg/injection, schedule: Q01DX009 (ip), vehicle: Klucel (hydroxypropylcellulose) (HPC)) 102 % of control.

With `CCCCCCCCCCOC(=O)Nc1cccc(O)c1`, the T/C under setting [17] was 95 % of control, the T/C under setting [18] is 95 % of control and the T/C under setting [19] is 98 % of control.

Turning to `CCCCC1(C2CCCC2)NC(C)(C)CC(C)O1` (stereo not given), the T/C reads like this: under setting [7], 97 % of control; (dose: 200.0 mg/kg/injection, schedule: Q04DX003 (ip), vehicle: saline) 96 % of control; (dose: 400.0 mg/kg/injection, schedule: Q04DX003 (ip), vehicle: saline) 89 % of control.

Turning to `COc1ccc(F)c(NC(=O)/C=N/O)c1`, the T/C runs as follows: under setting [17], 102 % of control; under setting [18], 102 % of control; under setting [19], 100 % of control.

Take `CC(C)(C)N/C(=C/C(=O)c1ccccc1)c1ccccc1`: the T/C by setting is: under setting [17], 94 % of control; under setting [18], 96 % of control; under setting [19], 95 % of control.

As to `CC(C)CCCC(C)C1CCC2C3CC=C4CC(OC(=O)CCC(C)C)CC(O)C4(C)C3CCC12C` (stereo not given), the T/C reads like this: under setting [1], 96 % of control; under setting [2], 94 % of control; under setting [3], 94 % of control.

As for `CCC1(C)CCC2C(=CCC3C(C)(C(=O)OC)CCCC23C)C1` (stereo not given), the T/C under setting [12] is 94 % of control, the T/C under setting [13] was 92 % of control and the T/C under setting [14] was 94 % of control.

Turning to `CCC(O)(CC)c1ccc2ncccc2c1`, the T/C by setting is: (dose: 75.0 mg/kg/injection, schedule: Q04DX003 (ip), vehicle: saline) 98 % of control; (dose: 150.0 mg/kg/injection, schedule: Q04DX003 (ip), vehicle: saline) 97 % of control; (dose: 300.0 mg/kg/injection, schedule: Q04DX003 (ip), vehicle: saline) 98 % of control.

For the compound `NC(N)=NC(N)=Nc1cnccn1`, the T/C was 91 % of control (dose: 25.0 mg/kg/injection, schedule: Q01DX009 (ip), vehicle: saline sonified); 104 % of control under setting [4]; 97 % of control (dose: 50.0 mg/kg/injection, schedule: Q01DX009 (ip), vehicle: saline sonified); 98 % of control under setting [5]; 95 % of control under setting [15]; 95 % of control (dose: 100.0 mg/kg/injection, schedule: Q01DX009 (ip), vehicle: saline sonified). Also, the T/C was 104 % of control under setting [7] and 93 % of control under setting [16].

Take `O=C(CC(=O)C(F)(F)F)c1ccco1.O=C(CC(=O)C(F)(F)F)c1ccco1.O=C(CC(=O)C(F)(F)F)c1ccco1.[Eu]`: the T/C under setting [17] is 94 % of control, the T/C under setting [18] is 94 % of control and the T/C under setting [19] is 89 % of control.
